Assay results reported in the supplement of paper PMC11451515.

Tests used:
Test in all cases: AUC of viability dose-response curve (% viability x log10 dose units); higher = less sensitive
Details in all cases: 48 h
NOMO1 = test system: NOMO1
Method in brief: (§1)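 Leukemia cells adapted to each medium were seeded in 1536-well plates (500 or 1000 cells/well) and given library compounds in DMSO for 48 h at 37°C. The 11 threefold doses spanned 47 μM to 0.79 nM, and CellTiter-Glo One luminescence was normalised per plate to DMSO and cell-free wells before four-parameter log-logistic fitting on log10 dose. Area under the curve was integrated with the trapezoidal rule, scaling curves above full viability and removing curves that failed quality control.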

P12-Ichikawa = test system: P12-Ichikawa
Method in brief: as §1

SEM cells = test system: SEM cells
Method in brief: as §1

[1] = RPMI 5 mM glucose + 10% dialyzed FBS

Structure (SMILES)	AUC of viability dose-response curve (NOMO1; HPLM + 10% dialyzed FBS)	AUC of viability dose-response curve (NOMO1; RPMI 5 mM glucose + 10% FBS)	AUC of viability dose-response curve (NOMO1; [1])	AUC of viability dose-response curve (P12-Ichikawa; HPLM + 10% dialyzed FBS)	AUC of viability dose-response curve (P12-Ichikawa; RPMI 5 mM glucose + 10% FBS)	AUC of viability dose-response curve (P12-Ichikawa; [1])	AUC of viability dose-response curve (SEM cells; HPLM + 10% dialyzed FBS)	AUC of viability dose-response curve (SEM cells; RPMI 5 mM glucose + 10% FBS)	AUC of viability dose-response curve (SEM cells; [1])
CC[S+](=O)([O-])c1cccc(-c2cc(C(=O)NC3CCN(C)CC3)c(C)c3[nH]c4ncc(C)cc4c23)c1	354	385	359	298	290	320	312	285	297
CNC(=O)c1ccc2cc(C3(O)CCn4cncc43)ccc2c1 (centres undefined)	458	456	456	453	469	453	441	450	452
C[C@]12CC[C@@H]3c4ccc(O)cc4CC[C@H]3[C@@H]1[C@@H](O)[C@@H](O)[C@@H]2O	461	471	468	468	457	450	465	448	461
C[C@]12COC(=O)C[C@@H]1CC[C@@H]1[C@@H]2CC[C@@]2(C)[C@H]1CC[C@]2(C)O	472	443	443	457	463	471	451	457	447
CC(C)OC(=O)C(C(=O)OC(C)C)=C1S\C=C/S1	425	435	437	443	433	424	458	446	438
C[C@H]1C[C@@H]2[C@H](CC[C@@]3(C)[C@H]2CC[C@]3(OC(C)=O)C(C)=O)[C@@]\4(C)CCC(=O)\C=C14	471	472	458	464	446	442	417	433	425
O=C(O)C1(Cc2cccc(Nc3nccs3)n2)CCC(Oc2cccc(Cl)c2F)CC1 (centres undefined)	381	382	386	356	373	381	370	369	368
COC(=O)Nc1cc(Nc2cc(NC3CC3)c3ncc(C#N)n3n2)c(Cl)c(N2CCN(C)CC2)c1	384	385	368	423	400	392	363	346	328
CN(C)[S+](=O)([O-])c1ccc2c(c1)C(=Cc1cc3c([nH]1)CCCC3)C(=O)N2	467	453	455	467	464	468	462	462	459
NC1=C(Cl)C(=CC=N1)OC2=C(F)C=C(NC(=O)\C3=C\N\C=C(C3=O)\C4=CC=C(F)C=C4)C=C2	441	452	453	451	448	447	312	287	247
CCCCC(=O)O[C@]1(C(=O)CO)[C@H](C)C[C@H]2[C@@H]3CCC4=CC(=O)C=C[C@]4(C)[C@@]3(F)[C@@H](O)C[C@@]21C	467	474	472	372	315	292	378	362	350
CCN1CCN(c2ccc(Nc3cc(N(C)C(=O)Nc4c(Cl)c(OC)cc(OC)c4Cl)ncn3)cc2)CC1	372	395	399	429	428	423	347	316	351
C[C@@H]1COCCN1c1cc(C2([S@+](C)(=N)[O-])CC2)nc(-c2ccnc3[nH]ccc23)n1	358	390	382	380	381	368	333	335	336
C[C@](O)(CS(=O)(=O)c1ccc(F)cc1)C(=O)Nc1ccc(C#N)c(C(F)(F)F)c1	443	460	470	472	463	470	461	433	444
CCOC(=O)N1CCN(/[N+]([O-])=N/Oc2ccc([N+](=O)[O-])cc2C#N)CC1	390	383	382	328	324	328	331	327	331
CC1CNc2c(cccc2[S+](=O)([O-])N[C@@H](CCCNC(=N)N)C(=O)N2CC[C@@H](C)C[C@@H]2C(=O)O)C1 (some centres undefined)	435	465	465	468	473	472	453	450	462
CC(C)(C)NC(=O)Nc1cccc(Nc2ncc(F)c(NC(C)(C)CO)n2)c1	477	450	459	415	425	429	415	396	397
COc1cc(OC2CCN(C)CC2)ccc1Nc1ncc2c(n1)n(C1CCCC1)c(=O)n2C	427	373	393	408	380	363	326	346	324
C[C@H]1COC2=C3N1\C=C(C(O)=O)/C(=O)C3=CC(=C2N4CCN(C)CC4)F	426	454	441	427	429	416	398	373	420
Cc1cnn(C)c1C(=O)Nc1cc(Nc2ccc3c(/C=C/c4ccccn4)n[nH]c3c2)ccc1F	422	460	454	424	449	441	343	311	330
CCN1CCN(CC1)CC(=O)NC2=CC=C(C3=C2C4=C(S3)C=CC=C4)C5=C6O\C(=C/C(=O)C6=CC=C5)N7CCOCC7	420	442	432	464	447	453	337	337	338
CCN(CC)CCCCNc1ncc2cc(-c3cc(OC)cc(OC)c3)c(NC(=O)NC(C)(C)C)nc2n1	388	459	444	449	406	404	400	393	391
CCOC(=O)[C@@H](N)Cc1ccc(-c2cc(O[C@H](c3ccc(Cl)cc3-n3ccc(C)n3)C(F)(F)F)nc(N)n2)cc1.O=C(O)CNC(=O)c1ccccc1	449	448	447	466	453	460	462	457	458
O=C(c1ccc(F)cc1)N1CCC[C@H](c2nc(-c3ccc(F)cc3)no2)C1	467	453	472	460	459	459	453	455	475
OC[C@H]1O[C@H]([C@H](O)[C@@H]1O)N2\C=C/C(=O)NC2=O	448	429	455	473	456	466	463	447	450
CC(C)c1ccc2c(c1)c(SC(C)(C)C)c(CC(C)(C)C(=O)[O-])n2Cc1ccc(Cl)cc1	452	436	403	457	445	423	473	456	455
